Test results published in patent US20080085881A1, “Stop-and-go oxaliplatin treatment regimens” (priority 2006, published 2008).

Legend:
Type in all cases: in vivo, patients
[1] = OPTIMOX1 study: neurotoxicity; settings: stopping oxaliplatin after the sixth cycle
Excerpt: Sensory neurotoxicity can be measured using known techniques and graded using defined criteria. For example, the National Cancer Institute Common Toxicity Criteria (NCI CTC) version 2.0 can be used to grade sensory neuropathy. Using these criteria, an NCI grade of 0 means that there is no change associated with the treatment. NCI grade 1 indicates the loss of deep tendon reflexes or paresthesia (including tingling) not interfering with function. […] NCI Grade 3 indicates sensory loss or paresthesia that interferes with activities of daily living. NCI Grade 4 is reserved for permanent sensory loss that interferes with function.
The OPTIMOX1 study examined the effect of oxaliplatin reintroduction in previously untreated patients with advanced colorectal cancer. The details of this study have been recently published by Tournigand et al., J. Clin. Oncol. (January 2006);24:394, and they are incorporated herein by reference. Two different FOLFOX regimens were used in the study: FOLFOX4 and FOLFOX7. The FOLFOX4 regimen comprises oxaliplatin 85 mg/m^2 given as a 2-hour infusion on day 1, leucovorin 200 mg/m^2 given as a 2-hour infusion on days 1 and 2, and 5-FU given on days 1 and 2 as a bolus of 400 mg/m^2 that is followed directly by a 22-hour infusion of 5-FU 600 mg/m^2 on each day. […]

[2] = system: advanced colorectal cancer; experiment: OPTIMOX1 study: FOLFOX4 until progression (arm A) versus stop-and-go FOLFOX7 (arm B); settings: OPTIMOX1, previously untreated advanced colorectal cancer
Procedure: The OPTIMOX1 study examined the effect of oxaliplatin reintroduction in previously untreated patients with advanced colorectal cancer. The details of this study have been recently published by Tournigand et al., J. Clin. Oncol. (January 2006);24:394, and they are incorporated herein by reference. Two different FOLFOX regimens were used in the study: FOLFOX4 and FOLFOX7. The FOLFOX4 regimen comprises oxaliplatin 85 mg/m^2 given as a 2-hour infusion on day 1, leucovorin 200 mg/m^2 given as a 2-hour infusion on days 1 and 2, and 5-FU given on days 1 and 2 as a bolus of 400 mg/m^2 that is followed directly by a 22-hour infusion of 5-FU 600 mg/m^2 on each day. The oxaliplatin infusion on day 1 is given concurrently with leucovorin, and on each day the 5-FU bolus directly follows the 2-hour infusion of leucovorin. FOLFOX7 comprises oxaliplatin 130 mg/m^2 and leucovorin 200 mg/m^2 given concurrently as 2-hour infusions on day 1, followed directly by a 46 hour infusion of 5-FU at 2400 mg/m^2. In some patients, the I-leucovorin isomer was used, but at half the mg/m^2 dosage for dI-leucovorin.
Patients were randomized to either FOLFOX4 every 2 weeks until progression (arm A), or FOLFOX7 for 6 cycles, maintenance with leucovorin-5-FU but without oxaliplatin for 12 […], and reintroduction of FOLFOX7 (arm B). […]

[3] = system: advanced colorectal cancer; experiment: Retrospective analysis of OPTIMOX1: effect of oxaliplatin reintroduction on overall survival (Cox model, centers grouped by reintroduction class)
Procedure: A retrospective analysis was used to evaluate the effect of oxaliplatin reintroduction on overall survival. The percentage of patients with oxaliplatin reintroduction was calculated in each center regardless of treatment arm, number of patients, or whether reintroduction was per protocol. A Cox model was used to analyze the impact of oxaliplatin reintroduction on survival, after adjustment for all baseline covariates, and using random effects to account for the fact that the percentage of patients with oxaliplatin reintroduction was estimated in each center. Centers were grouped by percentage of oxaliplatin reintroduction into 4 reintroduction classes defined according to the percentage of patients with oxaliplatin reintroduction (0, 1-20, 21-40, and >40). The hazard ratio (HR; adjusted for all baseline covariates) was calculated for each reintroduction class, using centers with no reintroduction (0%) as the reference group.

## O=C1[O][Pt]2([NH][C@@H]3CCCC[C@H]3[NH]2)[O]C1=O [oxaliplatin]
[1]
  risk of grade 3 or 4 neurotoxicity: reduced risk
[2]
  prognostic value of oxaliplatin reintroduction for overall survival: independent prognostic factor for improved overall survival
[3]; >40% reintroduction class
  Median survival: 23 months
[3]; after adjustment for all other factors, p<0.001
  impact of percentage of patients with oxaliplatin reintroduction on survival: highly significant impact on survival
[3]; after adjustment for all other factors, p=0.02
  impact of reintroduction class on survival: significant impact on survival
[3]; centers with 0% patients with oxaliplatin reintroduction (reference group)
  Adjusted survival hazard ratio (95% C.I.): 1.00 (reference)
[3]; centers with 1–20% patients with oxaliplatin reintroduction, versus 0% reference
  Adjusted survival hazard ratio (95% C.I.): 0.91 (0.56–1.48)
[3]; centers with 21–40% patients with oxaliplatin reintroduction, versus 0% reference
  Adjusted survival hazard ratio (95% C.I.): 0.78 (0.50–1.21)
[3]; centers with >40% patients with oxaliplatin reintroduction, versus 0% reference
  Adjusted survival hazard ratio (95% C.I.): 0.59 (0.38–0.91)
[3]; reference group (0% reintroduction)
  Median survival: 15 months
